Experimental data as given in patent publication US7994121B2, “Stable analogs of peptide and polypeptide therapeutics” (Trustees of Tufts College, priority 2003, dated 2011).
Entries after “also recorded” stand apart in the source; their conditions may differ. Where two headings read alike, the source gives them in different places. Each block holds one compound with its values, some of them ahead of it. Square brackets hold non-standard residues; d marks the D form. Ends that are not written are not given here. Peptide text beside a SMILES is read from it. Tle = CC(C)(C)[C@H](N)C(=O)O

Experiments:
[1] = molecular target: human DPP IV (Homo sapiens, UniProt P27487); test: Cleavage/degradation by DPP IV, HPLC/MS; type: in vitro ADME; details: for resistance to cleavage by DPP IV: in comparison to native GLP-1; for degradation by human DPP IV: two hours of treatment with human DPP IV, versus untreated peptide
Protocol: However, it is most desirable to produce peptide analogs that are not only resistant to proteolysis, but also retain all or much of the biological activity of the native peptide. Accordingly, we conducted a series of experiments to ascertain whether these GLP-1 analogs which display robust resistance to degradation by DPP IV also retain biological activities of native GLP-1
TLE-modified GLP-1 analog was treated with human DPP IV for two hours, and degradation of the analog over time was compared to that of analog in the absence of DPP IV.

[2] = molecular target: thrombin (Homo sapiens, UniProt P00734); test: Thrombin digestion of model peptide, C18 HPLC/MS; type: in vitro ADME; details: 4 hours at 23° C., 10 nM thrombin, 0.1 M HEPES pH 8
Protocol: Briefly, the peptide […] (SEQ ID NO: 31) is a model substrate for thrombin. Thrombin cleaves after the arginine residue. Accordingly, the serine residue of this model peptide is the P′1 positions. WALAPR^↓SFA
To compare digestion of the model peptide analog by thrombin with that of the native model peptide, peptides were digested for 4 hours at 23° C. with 10 nM thrombin in 0.1 M HEPES pH 8, 0.14 M NaCl, 5 mM CaCl2, 0.5% PEG6000. Following digestion, C18 reverse phase HPLC of the digests was compared to the undigested peptides, and the mass spectra of the major peaks are shown for each chromatogram in FIG. 7.

[3] = cited from earlier work

Sequence of human DPP IV (P27487 whole entry): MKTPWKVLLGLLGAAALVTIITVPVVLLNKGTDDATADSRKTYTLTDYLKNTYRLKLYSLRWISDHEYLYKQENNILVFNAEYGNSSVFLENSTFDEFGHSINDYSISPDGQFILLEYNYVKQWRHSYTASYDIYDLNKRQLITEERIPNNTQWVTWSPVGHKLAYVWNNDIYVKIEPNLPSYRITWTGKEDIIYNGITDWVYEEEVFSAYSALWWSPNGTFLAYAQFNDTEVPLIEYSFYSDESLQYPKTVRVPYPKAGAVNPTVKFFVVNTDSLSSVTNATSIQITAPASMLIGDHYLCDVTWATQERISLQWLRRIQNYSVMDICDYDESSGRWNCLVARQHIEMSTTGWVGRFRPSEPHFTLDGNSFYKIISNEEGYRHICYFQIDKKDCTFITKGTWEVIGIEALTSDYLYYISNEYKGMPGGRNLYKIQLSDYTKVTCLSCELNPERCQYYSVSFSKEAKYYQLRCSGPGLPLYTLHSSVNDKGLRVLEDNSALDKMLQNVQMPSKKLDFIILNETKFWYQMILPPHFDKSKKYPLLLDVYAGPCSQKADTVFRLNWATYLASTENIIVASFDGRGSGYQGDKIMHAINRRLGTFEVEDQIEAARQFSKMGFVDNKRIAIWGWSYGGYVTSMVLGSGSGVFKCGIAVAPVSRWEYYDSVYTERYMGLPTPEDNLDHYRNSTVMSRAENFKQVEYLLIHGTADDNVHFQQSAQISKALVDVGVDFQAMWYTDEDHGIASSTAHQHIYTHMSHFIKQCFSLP

Compound: CC[C@H](C)[C@H](NC(=O)[C@H](Cc1ccccc1)NC(=O)[C@H](CCC(=O)O)NC(=O)[C@H](CCCCN)NC(=O)[C@H](C)NC(=O)[C@H](C)NC(=O)[C@H](CCC(N)=O)NC(=O)CNC(=O)[C@H](CCC(=O)O)NC(=O)[C@H](CC(C)C)NC(=O)[C@H](Cc1ccc(O)cc1)NC(=O)[C@H](CO)NC(=O)[C@H](CO)NC(=O)[C@@H](NC(=O)[C@H](CC(=O)O)NC(=O)[C@H](CO)NC(=O)[C@@H](NC(=O)[C@H](Cc1ccccc1)NC(=O)[C@@H](NC(=O)CNC(=O)C(NC(=O)[C@H](C)NC(=O)[C@@H](N)Cc1c[nH]cn1)C(C)(C)C(=O)O)[C@@H](C)O)[C@@H](C)O)C(C)C)C(=O)N[C@@H](C)C(=O)N[C@@H](Cc1c[nH]c2ccccc12)C(=O)N[C@@H](CC(C)C)C(=O)N[C@H](C(=O)N[C@@H](CCCCN)C(=O)NCC(=O)N[C@@H](CCCNC(=N)N)C(=O)NCC(=O)O)C(C)C (stereo partly drawn) [GLP-1 (3DMA)]
- resistance to cleavage by DPP IV [1]: resistant to cleavage by DPP IV

Compound: GLP-1 (BM): GLP1(7-37) analog wherein the P′1 glutamic acid is substituted by 3-butyl-methyl-glycine (HAXGTFTSDVSSYLEGQAAKEFIAWLVKGRG; non-natural residues)
- resistance to cleavage by DPP IV [1]: resistant to cleavage by DPP IV

Compound: GLP-1: exogenous GLP-1 given subcutaneously or intravenously to subjects (Deacon et al.); metabolite co-elutes with GLP-I(9-36) amide
- degradation of infused GLP-1 ([3]; intravenous infusion): extensively degraded
- metabolite share of the increase in plasma immunoreactivity (CO2H-terminal RIA) ([3]; thirty minutes after subcutaneous GLP-1, diabetic patients (n is 8)): 88.5+1.9%
- metabolite share of the increase in plasma immunoreactivity (CO2H-terminal RIA) ([3]; thirty minutes after subcutaneous GLP-1, healthy subjects (n=8)): 78.4+3.2%

Compound: HAE GTFTSDVSSY LEGQAAKEFI AWLVKGRG [GLP-1 (7-37)]
- degradation by human DPP IV [1]: time dependent degradation; also recorded: time dependent loss of peptide

Further lines, results first:

- cleavage by thrombin [2]: not cleaved by thrombin
Compound: CC(C)C[C@H](NC(=O)[C@H](C)NC(=O)[C@@H](N)Cc1c[nH]c2ccccc12)C(=O)N[C@@H](C)C(=O)N1CCC[C@H]1C(=O)N[C@@H](CCCNC(=N)N)C(=O)N[C@H](C(=O)N[C@@H](Cc1ccccc1)C(=O)N[C@@H](C)C(=O)O)C(C)(C)C [TLE substituted peptide analog, WALAPRXFA] (H-WALAPR[Tle]FA-OH)

- degradation by human DPP IV [1]: resistant to degradation by DPP IV
Compound: CC[C@H](C)[C@H](NC(=O)[C@H](Cc1ccccc1)NC(=O)[C@H](CCC(=O)O)NC(=O)[C@H](CCCCN)NC(=O)[C@H](C)NC(=O)[C@H](C)NC(=O)[C@H](CCC(N)=O)NC(=O)CNC(=O)[C@H](CCC(=O)O)NC(=O)[C@H](CC(C)C)NC(=O)[C@H](Cc1ccc(O)cc1)NC(=O)[C@H](CO)NC(=O)[C@H](CO)NC(=O)[C@@H](NC(=O)[C@H](CC(=O)O)NC(=O)[C@H](CO)NC(=O)[C@@H](NC(=O)[C@H](Cc1ccccc1)NC(=O)[C@@H](NC(=O)CNC(=O)[C@@H](NC(=O)[C@H](C)NC(=O)[C@@H](N)Cc1c[nH]cn1)C(C)(C)C)[C@@H](C)O)[C@@H](C)O)C(C)C)C(=O)N[C@@H](C)C(=O)N[C@@H](Cc1c[nH]c2ccccc12)C(=O)N[C@@H](CC(C)C)C(=O)N[C@H](C(=O)N[C@@H](CCCCN)C(=O)NCC(=O)N[C@@H](CCCNC(=N)N)C(=O)NCC(=O)O)C(C)C [TLE-modified GLP-1]

- cleavage by thrombin [2]: efficiently cleaved by thrombin
Compound: WALAPRSFA [unmodified peptide]
